Source: patent US20110028513A1, “METHOD FOR TREATING NEUROLOGICAL DISORDERS WITH IMIDAZOLIUM AND IMIDAZOLINIUM COMPOUNDS” (priority 2008, published 2011)
“Also recorded” adds a separate entry of the source.

What was measured:
[1] = tested on: transgenic GFAP-GFP mice; experiment: In vivo retinal imaging (scanning laser ophthalmoscope) of GFP fluorescence in the optic disc of 2′-CH3-MPTP-treated mice
Procedure: (§1) The generation and genotyping of the transgenic GFAP (glial fibrillary acidic protein)-GFP (green fluorescent protein) mice were performed as previously described (Zhuo et al., 1997, See PCT Application No. PCT/SG2008/000159). Adult mice (8-10 weeks old) in the Friend virus B-Type (FVB/N) background were used in this study. Animal husbandry was provided by the Biological Resource Center (BRC) of Biopolis, Singapore. The experimental protocol for this study was approved by the Institutional Animal Care and Use Committee at BRC.
The synthesis of DBZIM has been described. (See PCT Application No. SG2009/000037, Zhang et al., 2007). The structure of DBZIM is illustrated in FIG. 1. […] The dosing regime is illustrated in FIG. 2. Mice in the DBZIM/neurotoxicant-treated group received an intraperitoneal (ip) injection of DBZIM (25 mg/kg in saline) 24 h before and after administering 4 ip injections of 2′-CH3-MPTP (15 mg/kg in saline; once every 2 h). Mice in the neurotoxicant-treated group were injected with 2′-CH3-MPTP only (4×15 mg/kg in saline; ip; once every 2 h). For each mouse in the DBZIM/neurotoxicant-treated group (n=5) and neurotoxicant-treated group (n=5), saline was used as a vehicle for the control group (n=6). Retinal imaging was performed before and after treatment.
Mice were anesthetized by ip injections with 0.15 ml/10 g body weight of Avertin (1.5% 2,2,2-tribromoethanol; T48402) purchased from Sigma-Aldrich (St. Louis, Mo., USA). Their pupils were dilated with a drop of 0.5% Cyclogyl® sterile ophthalmic solution (cyclopentolate hydrochloride, Alcon®, Puurs, Belgium). Custom-made polymethylmethacrylate (PMMA) hard contact lenses (Cantor & Nissel, Northamptonshire, UK) were used to avoid dehydration of the cornea. Careful examination by an eye specialist before scanning laser ophthalmoscope (SLO) imaging ruled out the presence of any corneal or lens opacity.
The second version of Heidelberg Retina Angiograph (HRA II) SLO (Heidelberg Engineering, Dossenheim, Germany) was modified for use on mice. SLO is an imaging technique based on the scanning of the fundus with a laser beam from a point source; the reflected light is detected by a photomultiplier. The incident and reflected light beams follow a co-axial path. Therefore, more light can pass through small eyes with SLO than with conventional fundus cameras. […]
Unlike magnetic resonance images (MRI) and in vitro fluorescent-labeled cell images, the in vivo fluorescence images of transgenic GFAP-GFP expression in the mouse retina have very low signal-to-noise ratio (SNR), which makes the quantitative analysis of the transgene expression difficult. […]

[2] = tested on: transgenic GFAP-GFP mice; experiment: Brain cryosection immunohistochemistry (GFP/TH) of striatum and SNpc after 2′-CH3-MPTP; format: in vivo; settings: DBZIM 25 mg/kg ip plus 2′-CH3-MPTP
Procedure: as §1
(§2) The synthesis of DBZIM has been described. (See PCT Application No. SG2009/000037, Zhang et al., 2007). The structure of DBZIM is illustrated in FIG. 1. […] The dosing regime is illustrated in FIG. 2. Mice in the DBZIM/neurotoxicant-treated group received an intraperitoneal (ip) injection of DBZIM (25 mg/kg in saline) 24 h before and after administering 4 ip injections of 2′-CH3-MPTP (15 mg/kg in saline; once every 2 h). […]
(§3) After perfusion with 1× PBS, followed by 4% fresh paraformaldehyde (in 1× PBS, pH 7.4), the mouse brains were harvested and the eyes enucleated. […] The retinas, free of the choroid and sclera tissues, were whole-mounted on a glass slide with Vectorshield mounting medium for fluorescence (Vector Laboratories, Inc., Burlingame, Calif., USA; H1000). […]

[3] = tested on: transgenic GFAP-GFP mice; experiment: Retinal whole-mount and cross-section immunohistochemistry (GFP/GFAP) for 2′-CH3-MPTP-induced gliosis; format: in vivo; settings: DBZIM 25 mg/kg ip plus 2′-CH3-MPTP
Procedure: as §1, §2, §3

Row | Compound | fluorescence intensity (FI) in the optic disc over saline control, in words ([1]; 2′-CH3-MPTP alone, 4 x 15 mg/kg ip, P<0.05, FIG. 4) | increase in GFP fluorescence of the optic disc ([1]; neurotoxicant alone, 4 x 15 mg/kg ip once every 2 h, versus saline control, FIG. 4) | change in GFP fluorescence (fluorescence intensity) of the optic disc versus saline control ([1]; DBZIM 25 mg/kg ip 24 h before and after 4 x 15 mg/kg ip 2′-CH3-MPTP, quantified by algorithm, FIG. 4, day 4) | apparent retinal neurotoxicity in composite retinal images ([1]; DBZIM 25 mg/kg ip plus 2′-CH3-MPTP, FIG. 3) | DA neuron depletion in the SNpc (TH immunoreactivity) ([2]; SNpc, FIG. 8) | striatal gliosis (GFP signal) ([2]; striatum, FIG. 7) | gliosis in retinal whole-mounts (GFP green and GFAP red fluorescence, nerve fiber layer) ([3]; FIG. 5) | gliosis in retinal astrocytes and Müller cells (retinal cross-sections) ([3]; FIG. 6)
1 | Cc1ccccc1C1=CCN(C)CC1 [2′-CH3-MPTP, methyl-4(2′-methylphenyl)-1,2,3,6-tetrahydropyridine, reference compound] | significant increase | 36% | – | – | – | – | – | –
2 | [Br-].c1ccc(Cn2cc[n+](Cc3ccccc3)c2)cc1 [DBZIM, 1,3-bisbenzylimidazolium bromide] | – | – | no significant change; also recorded: prevented the 2′-CH3-MPTP-induced retinal toxicity | no apparent neurotoxicity | A significant portion of the DA neurons is protected | cut down the gliosis in the striatum to a basal level; also recorded: significantly attenuates the neurotoxicity | attenuated both green and red fluorescence to the basal levels; also recorded: significantly attenuates the gliosis | reduced the neurotoxicant-induced gliosis to close to the basal level; also recorded: significantly attenuated
